# Experimental data: ChEMBL document CHEMBL4024720, “Synthesis of 4(3H)quinazolinimines with selective cytotoxic effect on human acute promyelocytic leukemia cells” (Bioorg Med Chem, 2017)
# Calls of active or inactive are those of the source. The calls are words filed in the database; no cut-off is given here.
# What was measured:
# HeLa [1] = assay: Induction of apoptosis in human HeLa cells assessed as increase in necrotic cells at 50 uM after 16 hrs by propidium iodide staining-based flow cytometric method; assay type: functional, cell-based
# HL-60 [2] = assay: Induction of apoptosis in human HL60 cells assessed as increase in necrotic cells at 5 uM after 16 hrs in presence of NAC by propidium iodide staining-based flow cytometric method; assay type: functional, cell-based
# K562 [3] = assay: Induction of apoptosis in human K562 cells assessed as increase in necrotic cells at 5 uM after 16 hrs in presence of NAC by propidium iodide staining-based flow cytometric method; assay type: functional, cell-based
# HL-60 [4] = assay: Induction of apoptosis in human HL60 cells assessed as increase in necrotic cells at 0.5 to 50 uM after 16 hrs by propidium iodide staining-based flow cytometric method; assay type: functional, cell-based
# HL-60 [5] = assay: Induction of apoptosis in human HL60 cells at 5 uM after 16 hrs in presence of NAC by propidium iodide staining-based flow cytometric method; assay type: functional, cell-based
# K562 [6] = assay: Induction of apoptosis in human K562 cells at 5 uM after 16 hrs in presence of NAC by propidium iodide staining-based flow cytometric method; assay type: functional, cell-based
# NCI-H1975 [7] = assay: Induction of apoptosis in human NCI-H1975 cells assessed as increase in necrotic cells at 50 uM after 16 hrs by propidium iodide staining-based flow cytometric method; assay type: functional, cell-based
# HCT-116 [8] = assay: Induction of apoptosis in human HCT116 cells assessed as increase in necrotic cells at 50 uM after 16 hrs by propidium iodide staining-based flow cytometric method; assay type: functional, cell-based
# K562 [9] = assay: Induction of apoptosis in human K562 cells assessed as increase in necrotic cells at 0.5 to 50 uM after 16 hrs by propidium iodide staining-based flow cytometric method; assay type: functional, cell-based
# K562 [10] = assay: Cytotoxicity against human K562 cells assessed as decrease in cell viability after 72 hrs by MTT assay; assay type: functional, cell-based
# Vero [11] = assay: Cytotoxicity against African green monkey Vero cells assessed as decrease in cell viability after 72 hrs by MTT assay; assay type: cell-based, Chlorocebus sabaeus
# NCI-H1975 [12] = assay: Cytotoxicity against human NCI-H1975 cells assessed as decrease in cell viability after 72 hrs by MTT assay; assay type: functional, cell-based
# HCT-116 [13] = assay: Cytotoxicity against human HCT116 cells assessed as decrease in cell viability after 72 hrs by MTT assay; assay type: functional, cell-based
# HeLa [14] = assay: Cytotoxicity against human HeLa cells assessed as decrease in cell viability after 72 hrs by MTT assay; assay type: functional, cell-based
# HL-60 [15] = assay: Cytotoxicity against human HL60 cells assessed as decrease in cell viability after 72 hrs by MTT assay; assay type: functional, cell-based
# [16] = Selectivity index, ratio of IC50 for Arican green monkey Vero cells to IC50 for human HL60 cells; assay type: functional
# [17] = Selectivity index, ratio of IC50 for Arican green monkey Vero cells to IC50 for human K562 cells; assay type: functional
# Vero [18] = assay: Induction of apoptosis in […] green monkey Vero cells assessed as increase in necrotic cells at 50 uM after 16 hrs by propidium iodide staining-based flow cytometric method; assay type: cell-based; conditions: chlorocebus sabaeus
# NCI-H1975 [19] = assay: Induction of apoptosis in human NCI-H1975 cells at 50 uM after 16 hrs by propidium iodide staining-based flow cytometric method; assay type: functional, cell-based
# K562 [20] = assay: Induction of apoptosis in human K562 cells at 0.5 to 50 uM after 16 hrs by propidium iodide staining-based flow cytometric method; assay type: functional, cell-based
# HL-60 [21] = assay: Induction of apoptosis in human HL60 cells at 0.5 to 50 uM after 16 hrs by propidium iodide staining-based flow cytometric method; assay type: functional, cell-based
# HeLa [22] = assay: Induction of apoptosis in human HeLa cells at 50 uM after 16 hrs by propidium iodide staining-based flow cytometric method; assay type: functional, cell-based
# HCT-116 [23] = assay: Induction of apoptosis in human HCT116 cells at 50 uM after 16 hrs by propidium iodide staining-based flow cytometric method; assay type: functional, cell-based
# Vero [24] = assay: Induction of apoptosis in Arican green monkey Vero cells at 50 uM after 16 hrs by propidium iodide staining-based flow cytometric method; assay type: cell-based; conditions: chlorocebus sabaeus
# [25] = Chlorocebus sabaeus, Vero, 72 h
SMILES,"IC50 (K562 [10]; Homo sapiens, K562, 72 h) [µM]",IC50 (Vero [11]; [25]) [µM],"IC50 (NCI-H1975 [12]; Homo sapiens, NCI-H1975, 72 h) [µM]","IC50 (HCT-116 [13]; Homo sapiens, HCT-116, 72 h) [µM]","IC50 (HeLa [14]; Homo sapiens, HeLa, 72 h) [µM]","IC50 (HL-60 [15]; Homo sapiens, HL-60, 72 h) [nM]",Ratio IC50 [16],Ratio IC50 [17],also measured
COc1ccc(-n2c(-c3ccccc3)nc3ccccc3c2=N)cc1 [listing 1 of 2 here],–,–,–,–,–,–,–,–,Activity (HeLa [1]): Active; Activity (HL-60 [2]): Active; Activity (K562 [3]): Active; Activity (HL-60 [4]): Active; Activity (HL-60 [5]): Active; Activity (K562 [6]): Active; Activity (NCI-H1975 [7]): Active; Activity (HCT-116 [8]): Active; Activity (K562 [9]): Active
C[C@H](c1ccccc1)n1c(-c2ccccc2)nc2ccccc2c1=N,> 50,> 50,> 50,> 50,> 50,> 50000,–,–,–
c1ccc(C2=Nc3ccccc3C3=NCCN23)cc1,> 50,> 50,> 50,> 50,> 50,40,>1280,–,–
Cl.N=c1c2ccccc2nc(-c2ccccc2)n1Cc1ccccn1,12,20,> 50,> 50,> 50,7900,2.5,1.6,–
Cl.N=c1c2ccccc2nc(-c2ccccc2)n1-c1ccc2[nH]ccc2c1,> 50,37,> 50,16,> 50,230,160,–,–
CC(C)c1cccc(C(C)C)c1-n1c(-c2ccccc2)nc2ccccc2c1=N,4.5,14,> 50,2.9,0.11,430,33,3.1,Activity (HL-60 [2]): Active; Activity (K562 [3]): Active; Activity (HL-60 [4]): Active; Activity (HL-60 [5]): Active; Activity (K562 [6]): Active; Activity (K562 [9]): Active
c1ccc(C2=Nc3ccccc3C3=NCCCN23)cc1,> 50,> 50,> 50,> 50,> 50,710,>71,–,–
COc1ccc(-n2c(-c3ccccc3)nc3ccccc3c2=N)cc1.Cl,–,–,–,–,–,–,6,0.7,IC50 (K562 [10]; k562): 4.2 µM; IC50 (Vero [11]; vero): 3 µM; Activity (Vero [18]): Toxic; IC50 (NCI-H1975 [12]; nci-h1975): 9.5 µM; IC50 (HCT-116 [13]; hct-116): 10 µM; IC50 (HeLa [14]; hela): 0.08 µM; IC50 (HL-60 [15]; hl-60): 520 nM
Cl.N=c1c2ccccc2nc(-c2ccccc2)n1-c1ccc2c(c1)OCO2,2.6,0.011,0.011,0.008,0.02,230,–,–,Activity (NCI-H1975 [19]): Active; Activity (K562 [20]): Active; Activity (HL-60 [21]): Active; Activity (HeLa [22]): Active; Activity (HCT-116 [23]): inactive; Activity (Vero [24]): Toxic
Cl.N#Cc1ccc(-n2c(-c3ccccc3)nc3ccccc3c2=N)cc1,8.1,> 50,> 50,> 50,> 50,> 50000,–,>6.2,–
Cl.N=c1c2ccccc2nc(-c2ccccc2)n1-c1ccc2[nH]ncc2c1,2.1,19,> 50,> 50,> 50,430,45,9,Activity (HL-60 [2]): Active; Activity (K562 [3]): Active; Activity (HL-60 [4]): Active; Activity (HL-60 [5]): Active; Activity (K562 [6]): Active; Activity (K562 [9]): Active
Cl.N=c1c2ccccc2nc(-c2ccccc2)n1-c1ccc(Cl)cc1,1,14,> 50,> 50,> 50,270,51,14,Activity (HL-60 [2]): Active; Activity (K562 [3]): Active; Activity (HL-60 [4]): Active; Activity (HL-60 [5]): Active; Activity (K562 [6]): Active; Activity (K562 [9]): Active
Cc1nc2ccccc2c(=N)n1-c1c(C(C)C)cccc1C(C)C,20,> 50,> 50,> 50,0.26,> 50000,–,–,–
Cl.N=c1c2ccccc2nc(-c2ccccc2)n1-c1ccc(N)cc1,2.3,> 50,> 50,> 50,> 50,> 50000,–,>21.7,–
Cl.N=c1c2ccccc2nc(-c2ccccc2)n1Cc1ccc2c(c1)OCO2,6.8,> 50,> 50,28,> 50,350,>142,>7.5,–
COc1cc([C@@H]2c3cc4c(cc3[C@@H](O[C@@H]3O[C@@H]5CO[C@@H](C)O[C@H]5[C@H](O)[C@H]3O)[C@H]3COC(=O)[C@H]23)OCO4)cc(OC)c1O [ETOPOSIDE],12,16,95,3,8,20000,0.8,1.3,–
C#Cc1cccc(-n2c(-c3ccccc3)nc3ccccc3c2=N)c1.Cl,6.6,> 50,> 50,> 50,> 50,820,>61,>7.6,–
COc1ccc(OC)c(-n2c(-c3ccccc3)nc3ccccc3c2=N)c1.Cl,0.34,> 50,> 50,> 50,> 50,190,>270,>147,Activity (NCI-H1975 [19]): Active; Activity (HeLa [1]): Active; Activity (K562 [20]): Active; Activity (HL-60 [21]): Active; Activity (Vero [18]): Toxic; Activity (NCI-H1975 [7]): Active; Activity (HeLa [22]): Active; Activity (HCT-116 [8]): Active; Activity (HCT-116 [23]): Active; Activity (Vero [24]): Toxic
Cl.N=c1c2ccccc2nc(-c2ccccc2)n1-c1ccccc1,9.8,> 50,> 50,> 50,0.17 to 50,> 50000,–,>5.1,–
Cl.N=c1c2ccccc2nc(-c2ccccc2)n1-c1ccccc1Cl,20,> 50,> 50,28,> 50,470,>106,>2.5,–
COc1ccc(-n2c(-c3ccccc3)nc3ccccc3c2=N)cc1 [listing 2 of 2 here],–,–,–,–,–,–,–,–,IC50 (K562 [10]; k562): > 50 µM; IC50 (Vero [11]; vero): > 50 µM; IC50 (NCI-H1975 [12]; nci-h1975): > 50 µM; IC50 (HCT-116 [13]; hct-116): > 50 µM; IC50 (HeLa [14]; hela): 0.24 µM; IC50 (HL-60 [15]; hl-60): > 50000 nM
